Tests used:
Type in all cases: biochemical
hEXO1, Isoform1 = hEXO1, Isoform1 (Homo sapiens (Human), UniProt Q9UQ84); assay: Enzymatic IC50 assay, FAM-labeled DNA oligomer substrate, fluorescence intensity (EXO1); conditions: hEXO1 6 nM, substrate 30 nM, reaction time 60 minutes, 23° C.
Experimental: (§1) FEN1, EXO1 or XPG enzyme was incubated with compound or vehicle (DMSO) and the FAM-labeled DNA oligomer substrate in a microtiter plate. The stop buffer contains EDTA to stop the enzymatic reaction. The plate is read for fluorescence intensity. The high control (DMSO) with high fluorescence intensity represents no inhibition of enzymatic reaction while the low control (10 μM) with low fluorescence intensity represents full inhibition of enzymatic reaction.
(§2) • FEN1 • hFEN1: 70 pM • Substrate: 100 nM • Reaction time: 20 minutes • EXO1 • hEXO1: 6 nM, Isoforml • Substrate: 30 nM • Reaction time: 60 minutes • XPG • hXPG: 100 nM • Substrate: 100 nM • Reaction time: 120 minutes
(§3) Annealing Buffer: 50 mM Tris-HCl, 50 mM NaCl, 1 mM DTT Assay buffer: 50 mM Tris-HCl pH 8.0, 10 mM MgCl2, 0.01% BSA, 1 mM DTT Stop buffer: 50 mM EDTA in assay buffer Temperature: 23° C. Total volume: 40 μl Controls: • 0% inhibition control: DMSO • 100% inhibition control: 10 μM (final) 5-chloro-3-hydroxy-1,3-dihydroquinazoline-2,4-dione Enzyme Reaction and Detection: • 1. Prepare 25 μM intermediate stock of the substrate by diluting SEQ ID NO:1, SEQ ID NO:2, and SEQ ID NO:3 in annealing buffer, in a PCR tube. • 2. Place the PCR tube on a heat block, heat at 95° C. for 3 minutes, then drop in 0.2° C. increments over 2 minutes, stopping at 25° C. • 3. Remove the tube and let the tube cool at room temperature. • 4. Transfer 10 μL of 3× final concentration test compounds or DMSO to the appropriate wells of a microtiter plate. • 5. Transfer 10 μL of 3× final concentration enzyme in assay buffer or assay buffer alone to the appropriate wells. • 6. Incubate the plate at room temperature for 15 minutes. • 7. Transfer 10 μL of 3× substrate in assay buffer to all the test wells. • 8. Incubate the plate at room temperature for prescribed reaction time. • 9. Centrifuge the plate at 1000 rpm for 1 minute. • 10. Transfer 10 μL of stop buffer to all the test wells. • 11. Centrifuge the plate at 1000 rpm for 1 minute. • 12. Read the plate on a plate reader.

hXPG = hXPG (Homo sapiens (Human), UniProt P28715); assay: Enzymatic IC50 assay, FAM-labeled DNA oligomer substrate, fluorescence intensity (XPG); conditions: hXPG 100 nM, substrate 100 nM, reaction time 120 minutes, 23° C.
Experimental: as §1, §2, §3

hFEN1 = hFEN1 (Homo sapiens (Human), UniProt P39748); assay: Enzymatic IC50 assay, FAM-labeled DNA oligomer substrate, fluorescence intensity (FEN1); conditions: hFEN1 70 pM, substrate 100 nM, reaction time 20 minutes, 23° C.
Outline: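 FEN1, EXO1 or XPG was preincubated 15 min with compound, then the FAM-labelled DNA oligomer substrate was added in Tris-HCl pH 8.0 with 10 mM MgCl2 at 23° C. FEN1 was 70 pM with 100 nM substrate for 20 min, EXO1 6 nM with 30 nM for 60 min, and XPG 100 nM with 100 nM for 120 min. Reactions were EDTA-stopped and read by fluorescence intensity.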

Chain of hFEN1 (P39748 whole entry): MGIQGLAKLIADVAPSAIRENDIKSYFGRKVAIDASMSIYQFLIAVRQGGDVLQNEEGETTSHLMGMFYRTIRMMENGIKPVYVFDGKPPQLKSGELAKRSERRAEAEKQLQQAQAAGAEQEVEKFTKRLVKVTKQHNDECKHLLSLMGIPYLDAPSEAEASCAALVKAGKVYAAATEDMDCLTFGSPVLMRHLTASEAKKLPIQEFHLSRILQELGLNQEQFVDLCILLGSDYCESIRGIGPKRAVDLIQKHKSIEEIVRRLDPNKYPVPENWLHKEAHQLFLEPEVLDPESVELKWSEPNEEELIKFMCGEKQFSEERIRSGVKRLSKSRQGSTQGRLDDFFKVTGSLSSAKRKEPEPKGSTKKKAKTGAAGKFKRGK
Chain of hXPG (P28715 whole entry): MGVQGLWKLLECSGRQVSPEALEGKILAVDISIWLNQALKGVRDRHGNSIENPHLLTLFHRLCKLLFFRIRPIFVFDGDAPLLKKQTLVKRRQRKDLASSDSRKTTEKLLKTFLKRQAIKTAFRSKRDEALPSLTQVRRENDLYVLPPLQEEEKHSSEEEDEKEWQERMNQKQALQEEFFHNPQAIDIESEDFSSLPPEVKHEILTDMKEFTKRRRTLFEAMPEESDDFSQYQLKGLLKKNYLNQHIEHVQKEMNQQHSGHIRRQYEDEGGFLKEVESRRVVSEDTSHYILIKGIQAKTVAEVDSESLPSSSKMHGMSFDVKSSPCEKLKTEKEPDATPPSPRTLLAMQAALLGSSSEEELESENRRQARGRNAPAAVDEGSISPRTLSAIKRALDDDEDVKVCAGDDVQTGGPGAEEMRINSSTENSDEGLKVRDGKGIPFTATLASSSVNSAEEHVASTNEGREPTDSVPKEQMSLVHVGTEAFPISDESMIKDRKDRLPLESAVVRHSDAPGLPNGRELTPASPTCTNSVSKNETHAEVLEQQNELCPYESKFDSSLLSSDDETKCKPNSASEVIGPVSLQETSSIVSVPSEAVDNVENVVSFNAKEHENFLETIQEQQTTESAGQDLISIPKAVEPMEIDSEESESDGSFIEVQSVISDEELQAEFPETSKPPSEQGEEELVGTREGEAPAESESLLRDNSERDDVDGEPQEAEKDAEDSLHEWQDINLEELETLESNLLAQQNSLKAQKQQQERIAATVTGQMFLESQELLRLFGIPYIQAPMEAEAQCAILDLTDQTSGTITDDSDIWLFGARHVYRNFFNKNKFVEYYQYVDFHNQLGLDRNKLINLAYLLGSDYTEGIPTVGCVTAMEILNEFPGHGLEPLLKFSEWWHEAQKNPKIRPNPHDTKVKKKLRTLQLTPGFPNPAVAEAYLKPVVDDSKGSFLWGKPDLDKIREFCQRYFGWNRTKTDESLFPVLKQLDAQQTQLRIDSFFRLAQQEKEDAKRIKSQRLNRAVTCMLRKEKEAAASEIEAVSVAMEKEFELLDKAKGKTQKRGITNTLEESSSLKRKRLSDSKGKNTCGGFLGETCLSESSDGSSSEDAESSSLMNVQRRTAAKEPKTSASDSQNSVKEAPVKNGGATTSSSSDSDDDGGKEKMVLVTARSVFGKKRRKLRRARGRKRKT
Chain of hEXO1, Isoform1 (Q9UQ84 whole entry, canonical isoform): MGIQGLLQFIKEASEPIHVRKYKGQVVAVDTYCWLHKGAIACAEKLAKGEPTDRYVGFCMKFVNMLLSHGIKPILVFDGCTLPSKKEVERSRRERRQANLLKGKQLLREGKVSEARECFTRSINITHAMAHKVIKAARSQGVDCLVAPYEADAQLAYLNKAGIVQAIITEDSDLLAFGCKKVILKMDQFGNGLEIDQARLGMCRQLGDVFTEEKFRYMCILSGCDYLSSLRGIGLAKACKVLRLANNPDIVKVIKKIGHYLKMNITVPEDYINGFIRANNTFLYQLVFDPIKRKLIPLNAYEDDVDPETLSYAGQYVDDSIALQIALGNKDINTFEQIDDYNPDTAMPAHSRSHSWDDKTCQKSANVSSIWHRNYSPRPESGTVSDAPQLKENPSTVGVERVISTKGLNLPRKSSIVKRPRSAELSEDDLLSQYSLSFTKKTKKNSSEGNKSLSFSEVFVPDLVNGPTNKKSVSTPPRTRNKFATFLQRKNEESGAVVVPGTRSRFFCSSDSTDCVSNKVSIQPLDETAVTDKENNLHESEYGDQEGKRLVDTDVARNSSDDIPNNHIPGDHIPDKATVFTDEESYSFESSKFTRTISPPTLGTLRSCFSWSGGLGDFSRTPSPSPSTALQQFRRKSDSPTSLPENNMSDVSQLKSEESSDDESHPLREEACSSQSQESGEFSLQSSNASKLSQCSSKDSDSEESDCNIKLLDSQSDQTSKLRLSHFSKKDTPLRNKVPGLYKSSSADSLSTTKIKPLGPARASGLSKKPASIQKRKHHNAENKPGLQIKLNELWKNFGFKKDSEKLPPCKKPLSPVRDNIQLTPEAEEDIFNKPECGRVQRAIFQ

Row | IC50 (hEXO1, Isoform1) [nM] | IC50 (hXPG) [nM] | IC50 (hFEN1) [nM] | Structure (SMILES)
1 | 2250 to 10000 | 2250 to 10000 | < 200 | O=C(O)c1c(O)c(=O)n(Cc2cccc(Cl)c2)c2ccsc12 [Example 34, 4-(3-chlorobenzyl)-6-hydroxy-5-oxo-4,5-dihydrothieno[3,2-b]pyridine-7-carboxylic acid]
2 | 2250 to 10000 | 2250 to 10000 | < 200 | CC(=O)Nc1ccc(Cn2c(=O)c(O)c(C(=O)O)c3sccc32)cc1 [Example 40, 4-(4-acetamidobenzyl)-6-hydroxy-5-oxo-4,5-dihydrothieno[3,2-b]pyridine-7-carboxylic acid]
3 | 2250 to 10000 | 2250 to 10000 | 2250 to 10000 | O=C(O)c1c(O)c(=O)n(CC2CCOC2)c2ccsc12 (stereo not drawn) [Example 42, 6-hydroxy-5-oxo-4-((tetrahydrofuran-3-yl)methyl)-4,5-dihydrothieno[3,2-b]pyridine-7-carboxylic acid]
4 | 750 to 2250 | 2250 to 10000 | 250 to 750 | CS(=O)(=O)c1ccc(Cn2c(=O)c(O)c(C(=O)O)c3sccc32)cc1 [Example 50, 6-hydroxy-4-(4-(methylsulfonyl)benzyl)-5-oxo-4,5-dihydrothieno[3,2-b]pyridine-7-carboxylic acid]
5 | 2250 to 10000 | 2250 to 10000 | < 200 | Nc1ccc(Cn2c(=O)c(O)c(C(=O)O)c3sccc32)cc1 [Example 53, 4-(4-aminobenzyl)-6-hydroxy-5-oxo-4,5-dihydrothieno[3,2-b]pyridine-7-carboxylic acid]
6 | 2250 to 10000 | 2250 to 10000 | 750 to 2250 | CS(=O)(=O)c1cccc(Cn2c(=O)c(O)c(C(=O)O)c3sccc32)c1 [Example 63, 6-hydroxy-4-[3-(methylsulfonyl)benzyl]-5-oxo-4,5-dihydrothieno[3,2-b]pyridine-7-carboxylic acid]
7 | 750 to 2250 | 2250 to 10000 | 250 to 750 | CS(=O)(=O)Nc1cccc(Cn2c(=O)c(O)c(C(=O)O)c3sccc32)c1 [Example 78, 6-hydroxy-4-[3-(methylsulfonamido)benzyl]-5-oxo-4,5-dihydrothieno[3,2-b]pyridine-7-carboxylic acid]
8 | 2250 to 10000 | 2250 to 10000 | 250 to 750 | O=C(O)c1c(O)c(=O)n(Cc2ccc(Oc3ccccc3)cc2)c2ccsc12 [Example 81, 6-hydroxy-5-oxo-4-(4-phenoxybenzyl)-4,5-dihydrothieno[3,2-b]pyridine-7-carboxylic acid]
9 | > 10000 | > 10000 | 250 to 750 | Cc1cc(Cn2c(=O)c(O)c(C(=O)O)c3sccc32)on1 [Example 83, 6-hydroxy-4-[(3-methylisoxazol-5-yl)methyl]-5-oxo-4,5-dihydrothieno[3,2-b]pyridine-7-carboxylic acid]
10 | 250 to 750 | 250 to 750 | < 200 | O=C(O)c1c(O)c(=O)n(Cc2cnn(-c3ccccc3)c2)c2ccsc12 [Example 84, 6-hydroxy-5-oxo-4-[(1-phenyl-1H-pyrazol-4-yl)methyl]-4,5-dihydrothieno[3,2-b]pyridine-7-carboxylic acid]
11 | 2250 to 10000 | 750 to 2250 | 250 to 750 | O=C(O)c1c(O)c(=O)n(Cc2nnc(-c3ccccc3)o2)c2ccsc12 [Example 85, 6-hydroxy-5-oxo-4-[(5-phenyl-1,3,4-oxadiazol-2-yl)methyl]-4,5-dihydrothieno[3,2-b]pyridine-7-carboxylic acid]
12 | 750 to 2250 | 750 to 2250 | 250 to 750 | O=C(O)c1c(O)c(=O)n(Cc2nc(-c3ccccc3)no2)c2ccsc12 [Example 86, 6-hydroxy-5-oxo-4-[(3-phenyl-1,2,4-oxadiazol-5-yl)methyl]-4,5-dihydrothieno[3,2-b]pyridine-7-carboxylic acid]
13 | 250 to 750 | 750 to 2250 | < 200 | O=C(O)c1c(O)c(=O)n(Cc2cnn(-c3cccnc3)c2)c2ccsc12 [Example 87, 6-hydroxy-5-oxo-4-{[1-(pyridin-3-yl)-1H-pyrazol-4-yl]methyl}-4,5-dihydrothieno[3,2-b]pyridine-7-carboxylic acid]
14 | 250 to 750 | 2250 to 10000 | 750 to 2250 | O=C(O)c1c(O)c(=O)n(Cc2noc(-c3ccccc3)n2)c2ccsc12 [Example 88, 6-hydroxy-5-oxo-4-[(5-phenyl-1,2,4-oxadiazol-3-yl)methyl]-4,5-dihydrothieno[3,2-b]pyridine-7-carboxylic acid]
15 | 2250 to 10000 | 2250 to 10000 | < 200 | Cn1cc(Cn2c(=O)c(O)c(C(=O)O)c3sccc32)cn1 [Example 90, 6-hydroxy-4-[(1-methyl-1H-pyrazol-4-yl)methyl]-5-oxo-4,5-dihydrothieno[3,2-b]pyridine-7-carboxylic acid]
16 | 2250 to 10000 | 2250 to 10000 | < 200 | Cc1ncc(Cn2c(=O)c(O)c(C(=O)O)c3sccc32)s1 [Example 91, 6-hydroxy-4-[(2-methylthiazol-5-yl)methyl]-5-oxo-4,5-dihydrothieno[3,2-b]pyridine-7-carboxylic acid]
17 | 750 to 2250 | 2250 to 10000 | < 200 | O=C(O)c1c(O)c(=O)n(Cc2ccc3[nH]cnc3c2)c2ccsc12 [Example 99, 4-[(1H-benzo[d]imidazol-5-yl)methyl]-6-hydroxy-5-oxo-4,5-dihydrothieno[3,2-b]pyridine-7-carboxylic acid]
18 | 250 to 750 | 2250 to 10000 | 250 to 750 | O=C(O)c1c(O)c(=O)n(Cc2cnc3ccccc3c2)c2ccsc12 [Example 101, 6-hydroxy-5-oxo-4-(quinolin-3-ylmethyl)-4,5-dihydrothieno[3,2-b]pyridine-7-carboxylic acid]
19 | 250 to 750 | 750 to 2250 | 250 to 750 | N#Cc1ccccc1-n1cc(Cn2c(=O)c(O)c(C(=O)O)c3sccc32)cn1 [Example 111, 4-{[1-(2-cyanophenyl)-1H-pyrazol-4-yl]methyl}-6-hydroxy-5-oxo-4,5-dihydrothieno[3,2-b]pyridine-7-carboxylic acid]
20 | 250 to 750 | 750 to 2250 | < 200 | COc1ccc(-n2cc(Cn3c(=O)c(O)c(C(=O)O)c4sccc43)cn2)cc1 [Example 113, 6-hydroxy-4-{[1-(4-methoxyphenyl)-1H-pyrazol-4-yl]methyl}-5-oxo-4,5-dihydrothieno[3,2-b]pyridine-7-carboxylic acid]
21 | < 200 | 750 to 2250 | < 200 | CS(=O)(=O)c1cccc(-n2cc(Cn3c(=O)c(O)c(C(=O)O)c4sccc43)cn2)c1 [Example 115, 6-hydroxy-4-({1-[3-(methylsulfonyl)phenyl]-1H-pyrazol-4-yl}methyl)-5-oxo-4,5-dihydrothieno[3,2-b]pyridine-7-carboxylic acid]
22 | 250 to 750 | 750 to 2250 | < 200 | CS(=O)(=O)c1ccc(-n2cc(Cn3c(=O)c(O)c(C(=O)O)c4sccc43)cn2)cc1 [Example 116, 6-hydroxy-4-({1-[4-(methylsulfonyl)phenyl]-1H-pyrazol-4-yl}methyl)-5-oxo-4,5-dihydrothieno[3,2-b]pyridine-7-carboxylic acid]

Row | Structure (SMILES) | IC50 (hEXO1, Isoform1) [nM] | IC50 (hXPG) [nM] | IC50 (hFEN1) [nM]
23 | O=C(O)c1c(O)c(=O)n(Cc2cnc[nH]2)c2ccsc12 [Example 75, 4-[(1H-imidazol-5-yl)methyl]-6-hydroxy-5-oxo-4,5-dihydrothieno[3,2-b]pyridine-7-carboxylic acid] | 2250 to 10000 | > 10000 | 750 to 2250
